# Several values for one entry are separate records, joined by “and”; a condition that tells them apart may be missing. Identical values can stand only once. Like-named read-outs stand apart in the source and are kept apart here.
# How the values were obtained:
# [1] = biological target: T1, collagen (Gallus gallus, UniProt P02457+P02467); format: biochemical, spring chicken
# T1 construct: collagen obtained by grinding and deliming the bone of a spring chicken; from tissue; host or cells: bone of a spring chicken, ground and delimed (demineralised)
# T1 sequence (P02467 78-1363): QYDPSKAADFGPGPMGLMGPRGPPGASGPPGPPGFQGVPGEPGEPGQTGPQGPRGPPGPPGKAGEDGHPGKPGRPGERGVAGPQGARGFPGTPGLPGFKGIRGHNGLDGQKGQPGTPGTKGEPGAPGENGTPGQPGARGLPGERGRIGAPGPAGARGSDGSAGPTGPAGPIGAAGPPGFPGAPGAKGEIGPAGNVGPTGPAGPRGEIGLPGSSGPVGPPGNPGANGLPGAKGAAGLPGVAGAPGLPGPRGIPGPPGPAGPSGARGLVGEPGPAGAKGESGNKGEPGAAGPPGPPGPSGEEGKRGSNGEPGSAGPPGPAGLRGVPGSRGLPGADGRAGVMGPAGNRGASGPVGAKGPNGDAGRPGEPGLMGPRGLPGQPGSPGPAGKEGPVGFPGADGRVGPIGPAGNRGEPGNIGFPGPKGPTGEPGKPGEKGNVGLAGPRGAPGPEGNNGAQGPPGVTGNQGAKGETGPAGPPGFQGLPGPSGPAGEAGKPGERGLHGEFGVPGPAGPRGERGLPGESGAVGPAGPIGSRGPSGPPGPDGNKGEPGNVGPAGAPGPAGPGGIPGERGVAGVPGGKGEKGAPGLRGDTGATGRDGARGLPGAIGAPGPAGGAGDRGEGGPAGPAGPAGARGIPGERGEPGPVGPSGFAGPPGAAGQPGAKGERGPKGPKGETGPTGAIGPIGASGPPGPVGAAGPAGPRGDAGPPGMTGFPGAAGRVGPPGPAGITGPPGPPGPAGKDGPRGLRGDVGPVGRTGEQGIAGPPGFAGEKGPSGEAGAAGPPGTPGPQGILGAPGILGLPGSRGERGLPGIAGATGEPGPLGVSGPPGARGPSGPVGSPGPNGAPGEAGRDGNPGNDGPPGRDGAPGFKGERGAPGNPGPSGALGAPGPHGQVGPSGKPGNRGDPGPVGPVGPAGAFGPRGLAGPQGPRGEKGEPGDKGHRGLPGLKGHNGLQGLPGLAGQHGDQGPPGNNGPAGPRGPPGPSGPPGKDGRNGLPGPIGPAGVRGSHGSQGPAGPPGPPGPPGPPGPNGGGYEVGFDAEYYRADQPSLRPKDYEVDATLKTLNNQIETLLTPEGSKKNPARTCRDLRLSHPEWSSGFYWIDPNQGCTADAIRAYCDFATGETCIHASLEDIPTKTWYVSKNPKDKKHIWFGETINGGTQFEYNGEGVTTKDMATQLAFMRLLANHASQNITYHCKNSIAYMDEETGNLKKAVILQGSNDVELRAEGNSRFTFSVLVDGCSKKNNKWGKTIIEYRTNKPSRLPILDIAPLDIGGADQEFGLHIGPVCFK
# T1 sequence (P02457 152-1207): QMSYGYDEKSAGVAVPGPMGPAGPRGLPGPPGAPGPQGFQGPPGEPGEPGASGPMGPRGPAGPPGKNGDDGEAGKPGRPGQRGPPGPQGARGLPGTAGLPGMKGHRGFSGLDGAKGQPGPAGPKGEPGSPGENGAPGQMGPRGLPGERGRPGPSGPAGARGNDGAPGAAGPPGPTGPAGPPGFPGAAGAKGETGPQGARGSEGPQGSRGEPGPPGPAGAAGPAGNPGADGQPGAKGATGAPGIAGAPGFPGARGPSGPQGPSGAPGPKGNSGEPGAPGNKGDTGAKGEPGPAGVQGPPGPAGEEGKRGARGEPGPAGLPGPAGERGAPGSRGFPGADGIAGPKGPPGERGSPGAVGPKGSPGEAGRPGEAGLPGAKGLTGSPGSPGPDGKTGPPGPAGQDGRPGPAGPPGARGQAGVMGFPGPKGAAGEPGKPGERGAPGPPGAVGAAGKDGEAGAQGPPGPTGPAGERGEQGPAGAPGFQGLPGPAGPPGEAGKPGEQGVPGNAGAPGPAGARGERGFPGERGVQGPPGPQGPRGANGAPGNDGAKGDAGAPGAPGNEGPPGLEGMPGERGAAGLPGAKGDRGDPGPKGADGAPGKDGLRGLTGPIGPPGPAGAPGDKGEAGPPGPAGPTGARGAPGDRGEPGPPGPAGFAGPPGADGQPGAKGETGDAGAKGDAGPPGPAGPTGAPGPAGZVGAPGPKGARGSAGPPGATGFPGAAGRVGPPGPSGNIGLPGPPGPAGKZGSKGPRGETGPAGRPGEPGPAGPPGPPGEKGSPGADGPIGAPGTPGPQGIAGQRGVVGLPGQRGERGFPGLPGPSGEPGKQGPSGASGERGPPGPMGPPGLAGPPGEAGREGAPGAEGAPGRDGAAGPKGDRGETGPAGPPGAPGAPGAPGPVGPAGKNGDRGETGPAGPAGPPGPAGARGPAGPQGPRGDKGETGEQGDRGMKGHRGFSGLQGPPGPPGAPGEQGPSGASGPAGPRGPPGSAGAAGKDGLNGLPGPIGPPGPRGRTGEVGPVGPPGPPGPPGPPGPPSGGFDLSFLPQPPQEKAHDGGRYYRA
# [2] = LD50 safety data, rat subcutaneous treatment; settings: in vivo, sc
# Text: The silicon compound used in the present invention involves no problem with respect to safety. Shown below are data as to the safety of the silicon compounds.
# [3] = silicon compound 0.01 %, collagen 100 mg, glucose 0.2 M, pH 7.4, 37 C, 4 weeks
# [4] = silicon compound 0.01 %, collagen 100 mg, glucose 0.2 M, pH 7.4, 37 C, 4 weeks, solubilized by cutting with CNBr
# [5] = silicon compound 0.05 %, collagen 100 mg, glucose 0.2 M, pH 7.4, 37 C, 4 weeks
# [6] = silicon compound 0.05 %, collagen 100 mg, glucose 0.2 M, pH 7.4, 37 C, 4 weeks, solubilized by cutting with CNBr
# [7] = silicon compound 0.1 %, collagen 100 mg, glucose 0.2 M, pH 7.4, 37 C, 4 weeks
Structure (SMILES),"Portion A/ portion B [1, 3]","Soluble collagen (%) [1, 4] [%]","Portion A/ portion B [1, 5]","Soluble collagen (%) [1, 6] [%]","Portion A/ portion B [1, 7]","Soluble collagen (%) ([1]; silicon compound 0.1 %, collagen 100 mg, glucose 0.2 M, pH 7.4, 37 C, 4 weeks, solubilized by cutting with CNBr)",LD50 [2] [mg/kg],crosslinking and polymerization of collagen ([1]; addition of 0.01 to 0.1%),Soluble collagen (%) ([1]; pH 7.4),"Portion A/ portion B ([1]; silicon compound 0.003 %, collagen 100 mg, glucose 0.2 M, pH 7.4, 37 C, 4 weeks)","Portion A/ portion B ([1]; silicon compound 0.03 %, collagen 100 mg, glucose 0.2 M, pH 7.4, 37 C, 4 weeks)","Portion A/ portion B ([1]; silicon compound 0.3 %, collagen 100 mg, glucose 0.2 M, pH 7.4, 37 C, 4 weeks)"
"CCCCCCCCCCCC[Si](O)(O)O [Dodecyl silanetriol, dodecyl silanetriol]",0.45,68,0.44,72,,,,,,,,
"O[Si](O)(O)C1CCCCC1 [Cyclohexyl silanetriol, cyclohexyl silanetriol]",0.42,68,0.45,73,,,,,,,,
O[Si](O)(O)c1ccccc1 [Phenyl silanetriol],0.40,70,0.41,72,,,,,,,,
C[Si](O)(O)O[Si](C)(O)O [Dimer of methyl silnetriol],0.35,80,0.40,75,,,,,,,,
"CC=C[Si](O)(O)O [Propenyl silanetriol, propenyl silanetriol]",0.45,71,,,0.39,72,,,,,,
"C[Si](O)(O)O [Methyl silanetriol, methyl silanetriol]",0.40,,,,0.40,,≥ 1000,inhibits the crosslinking and polymerization of collagen,50% and 81% and 86% and 76% and 54%,0.55,0.35,0.54
"C[Si](C)(O)O [Dimethyl silanediol, dimethyl silanediol]",0.43,,,,0.35,,,,,,,
